Measurements from BindingDB's records for doi:10.1021/jm001024j (Uppsala University, 2001).

Biological target: T1, Dimer of Gag-Pol polyprotein [489-587] (Human immunodeficiency virus 1, UniProt P12497)
T1 construct: 489-587
Assay: Protease Inhibition Assay
Conditions: pH 5; 30 °C

| Compound | Ki [nM] |
| --- | --- |
| O=S1(=O)N(Cc2cccc(I)c2)[C@H](COc2ccccc2)[C@H](O)[C@@H](O)[C@@H](COc2ccccc2)N1Cc1cccc(I)c1 | 93 |
| CC(N=O)c1cccc(CN2[C@H](COc3ccccc3)[C@H](O)[C@@H](O)[C@@H](COc3ccccc3)N(Cc3cccc(C(C)N=O)c3)S2(=O)=O)c1 (stereo not given in full) | 3.4 |
| CC(=O)c1cccc(CN2[C@H](COc3ccccc3)[C@H](O)[C@@H](O)[C@@H](COc3ccccc3)N(Cc3cccc(C(C)=O)c3)S2(=O)=O)c1 | 59 |
| O=S1(=O)N(Cc2cccc(CCO)c2)[C@H](COc2ccccc2)[C@H](O)[C@@H](O)[C@@H](COc2ccccc2)N1Cc1cccc(CCO)c1 | 43 |
| O=S1(=O)N(Cc2ccc(CO)cc2)[C@H](COc2ccccc2)[C@H](O)[C@@H](O)[C@@H](COc2ccccc2)N1Cc1ccc(CO)cc1 | 3.1 |
| COC(=O)c1ccc(CN2[C@H](COc3ccccc3)[C@H](O)[C@@H](O)[C@@H](COc3ccccc3)N(Cc3ccc(C(=O)OC)cc3)S2(=O)=O)cc1 | 84 |
| O=C(CN1[C@H](COc2ccccc2)[C@H](O)[C@@H](O)[C@@H](COc2ccccc2)N(Cc2ccc(-c3cccs3)cc2)S1(=O)=O)Nc1nccs1 [2-[(3R,4S,5S,6R)-4,5-dihydroxy-1,1-dioxo-3,6-bis(phenoxymethyl)-7-{[4-(thiophen-2-yl)phenyl]methyl}-1,2,7-thiadiazepan-2-yl]-N-(1,3-thiazol-2-yl)acetamide] | 1800 |
| CNC(=O)CN1[C@H](COc2ccccc2)[C@H](O)[C@@H](O)[C@@H](COc2ccccc2)N(Cc2ccccc2)S1(=O)=O [2-[(3R,4S,5S,6R)-7-benzyl-4,5-dihydroxy-1,1-dioxo-3,6-bis(phenoxymethyl)-1,2,7-thiadiazepan-2-yl]-N-methylacetamide] | 1400 |
| CNC(=O)c1cccc(CN2[C@H](COc3ccccc3)[C@H](O)[C@@H](O)[C@@H](COc3ccccc3)N(Cc3cccc(C(=O)NC)c3)S2(=O)=O)c1 [(3R,4S,5S,6R)-2,7-Bis[3-(N-methylcarbamoyl)benzyl]-3,6-bis(phenoxymethyl)-4,5-dihydroxy-1,2,7-thiadiazepine 1,1-Dioxide] | 39 |
| CNC(=O)CN1[C@H](COc2ccccc2)[C@H](O)[C@@H](O)[C@@H](COc2ccccc2)N(CC(=O)NC)S1(=O)=O [(3R,4S,5S,6R)-2,7-Bis[(N-methylcarbamoyl)methyl]-3,6-bis(phenoxymethyl)-4,5-dihydroxy-1,2,7-thiadiazepine 1,1-Dioxide] | 25000 |
| CN1[C@H](COc2ccccc2)[C@H](O)[C@@H](O)[C@@H](COc2ccccc2)N(C)S1(=O)=O [(3R,4S,5S,6R)-2,7-Bismethyl-3,6-bis(phenoxymethyl)-4,5-dihydroxy-1,2,7-thiadiazepine 1,1-Dioxide] | 710 |
| COC(Cc1cccc(CN2[C@H](COc3ccccc3)[C@H](O)[C@@H](O)[C@@H](COc3ccccc3)N(Cc3cccc(CC(OC)OC)c3)S2(=O)=O)c1)OC [(3R,4S,5S,6R)-2,7-bis({[3-(2,2-dimethoxyethyl)phenyl]methyl})-4,5-dihydroxy-3,6-bis(phenoxymethyl)-1,2,7-thiadiazepane-1,1-dione] | 540 |
| O=S1(=O)N(Cc2ccccc2)[C@H](COc2ccccc2)[C@H](O)[C@@H](O)[C@@H](COc2ccccc2)N1Cc1ccc(-c2cccs2)cc1 [(3R,4S,5S,6R)-2-benzyl-4,5-dihydroxy-3,6-bis(phenoxymethyl)-7-{[4-(thiophen-2-yl)phenyl]methyl}-1,2,7-thiadiazepane-1,1-dione] | 63 |
| O=S1(=O)N(Cc2cccc(-c3cccs3)c2)[C@H](COc2ccccc2)[C@H](O)[C@@H](O)[C@@H](COc2ccccc2)N1Cc1cccc(-c2cccs2)c1 [(3R,4S,5S,6R)-3,6-Bis(phenoxymethyl)-2,7-bis[3-(2-thienyl)benzyl]-4,5-dihydroxy-1,2,7-thiadiazepine 1,1-Dioxide] | 2200 |
| O=C(CN1[C@H](COc2ccccc2)[C@H](O)[C@@H](O)[C@@H](COc2ccccc2)N(Cc2cccc(-c3cccs3)c2)S1(=O)=O)Nc1nccs1 [(3R,4S,5S,6R)-3,6-Bis(phenoxymethyl)-4,5-dihydroxy-2-[(N-2-thiazolylcarbamoyl)methyl]-7-[3-(2-thienyl)benzyl]-1,2,7-thiadiazepine 1,1-Dioxide] | 140 |
| O=C(CN1[C@H](COc2ccccc2)[C@H](O)[C@@H](O)[C@@H](COc2ccccc2)N(Cc2cccc(I)c2)S1(=O)=O)Nc1nccs1 [(3R,4S,5S,6R)-3,6-Bis(phenoxymethyl)-4,5-dihydroxy-7-(3-iodobenzyl)-2-[(N-2-thiazolylcarbamoyl)methyl]-1,2,7-thiadiazepine 1,1-Dioxide] | 510 |
| O=C(CN1[C@H](COc2ccccc2)[C@H](O)[C@@H](O)[C@@H](COc2ccccc2)N(Cc2ccccc2)S1(=O)=O)Nc1nccs1 [(3R,4S,5S,6R)-3,6-Bis(phenoxymethyl)-4,5-dihydroxy-7-benzyl-2-[(N-2-thiazolylcarbamoyl)methyl]-1,2,7-thiadiazepine 1,1-Dioxide] | 350 |
| CN1[C@H](COc2ccccc2)[C@H](O)[C@@H](O)[C@@H](COc2ccccc2)N(Cc2ccccc2)S1(=O)=O [(3R,4S,5S,6R)-3,6-Bis(phenoxymethyl)-4,5-dihydroxy-7-methyl-2-benzyl-1,2,7-thiadiazepine 1,1-Dioxide] | 510 |
| O=S1(=O)N(Cc2ccc(-c3cccs3)cc2)[C@H](COc2ccccc2)[C@H](O)[C@@H](O)[C@@H](COc2ccccc2)N1Cc1ccc(-c2cccs2)cc1 [(3R,4S,5S,6R)-4,5-dihydroxy-3,6-bis(phenoxymethyl)-2,7-bis({[4-(thiophen-2-yl)phenyl]methyl})-1,2,7-thiadiazepane-1,1-dione] | 920 |
| O=S1(=O)N(Cc2ccc(-c3cccs3)cc2)[C@H](COc2ccccc2)[C@H](O)[C@@H](O)[C@@H](COc2ccccc2)N1Cc1cccc(-c2cccs2)c1 [(3R,4S,5S,6R)-4,5-dihydroxy-3,6-bis(phenoxymethyl)-7-{[3-(thiophen-2-yl)phenyl]methyl}-2-{[4-(thiophen-2-yl)phenyl]methyl}-1,2,7-thiadiazepane-1,1-dione] | 6000 |
